# Experimental data taken from PubChem BioAssay AID200 (DTP/NCI, 2004).
# Values joined by “and” are separate entries in the source; they are usually repeats but may differ in a detail not shown here. Identical values can stand only once. Toxic doses and inconclusive results are not listed.
# Tested on: B6C3F1 mice, B16 melanoma ip, median survival T/C
# Assay: NCI In Vivo Anticancer Drug Screen. Data for tumor model B16 Melanoma (intraperitoneal) in B6C3F1 mice
# Settings: endpoint: median survival time, schedule: Q01DX009 (ip), higher = longer survival
# Summary of the method: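 Mice bearing transplanted tumor were dosed with compound or vehicle, and survival was recorded. Activity is expressed as the treated-group measurement (T) divided by the vehicle control measurement (C).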
# [1] = dose: 3.12 mg/kg/injection, vehicle: saline
# [2] = dose: 6.25 mg/kg/injection, vehicle: saline
# [3] = dose: 12.5 mg/kg/injection, vehicle: saline
# [4] = dose: 25.0 mg/kg/injection, vehicle: saline
# [5] = dose: 1.25 mg/kg/injection, vehicle: water
# [6] = dose: 2.5 mg/kg/injection, vehicle: water
# [7] = dose: 5.0 mg/kg/injection, vehicle: water
# [8] = dose: 12.5 mg/kg/injection, vehicle: saline with Tween-80
# [9] = dose: 25.0 mg/kg/injection, vehicle: saline with Tween-80
# [10] = dose: 50.0 mg/kg/injection, vehicle: saline with Tween-80
# [11] = dose: 50.0 mg/kg/injection, vehicle: Klucel (hydroxypropylcellulose) (HPC)
# [12] = dose: 100.0 mg/kg/injection, vehicle: Klucel (hydroxypropylcellulose) (HPC)
# [13] = dose: 100.0 mg/kg/injection, vehicle: saline with Tween-80
# [14] = dose: 200.0 mg/kg/injection, vehicle: Klucel (hydroxypropylcellulose) (HPC)
# [15] = dose: 200.0 mg/kg/injection, vehicle: saline with Tween-80
compound,measurement,setting,value
CC(C)C1C(=O)N2CCCC2C2(O)OC(NC(=O)C3C=C4c5cccc6[nH]cc(c56)CC4N(C)C3)(C(C)C)C(=O)N12 (centres undefined),T/C,"dose: 8.0 mg/kg/injection, vehicle: Klucel (hydroxypropylcellulose) (HPC)",106 % of control
same,T/C,"dose: 16.0 mg/kg/injection, vehicle: Klucel (hydroxypropylcellulose) (HPC)",109 % of control
same,T/C,"dose: 32.0 mg/kg/injection, vehicle: Klucel (hydroxypropylcellulose) (HPC)",117 % of control
same,T/C,"dose: 64.0 mg/kg/injection, vehicle: Klucel (hydroxypropylcellulose) (HPC)",105 % of control
C(=N/NC1=NCCN1)/c1c2ccccc2c(/C=N\NC2=NCCN2)c2ccccc12,T/C,[1],183 % of control
same,T/C,[2],189 % of control
same,T/C,[3],179 % of control
Cc1ccc(S(=O)(=O)OCCN(CCOS(=O)(=O)c2ccc(C)cc2)c2ccc(F)cc2)cc1,T/C,"dose: 3.12 mg/kg/injection, vehicle: saline + alcohol",109 % of control
same,T/C,"dose: 6.25 mg/kg/injection, vehicle: saline + alcohol",109 % of control
same,T/C,"dose: 12.5 mg/kg/injection, vehicle: saline + alcohol",108 % of control
same,T/C,"dose: 25.0 mg/kg/injection, vehicle: saline + alcohol",111 % of control
same,T/C,"dose: 50.0 mg/kg/injection, vehicle: saline + alcohol",108 % of control
NNC(=S)N/N=C/c1ccccn1,T/C,"dose: 1.56 mg/kg/injection, vehicle: saline",91 % of control
same,T/C,"dose: 1.56 mg/kg/injection, vehicle: suspension in saline",117 % of control
same,T/C,[1],109 % of control
same,T/C,"dose: 3.12 mg/kg/injection, vehicle: suspension in saline",113 % of control
same,T/C,[2],94 % of control
same,T/C,"dose: 6.25 mg/kg/injection, vehicle: suspension in saline",102 % of control
same,T/C,[3],105 % of control
same,T/C,"dose: 12.5 mg/kg/injection, vehicle: suspension in saline",113 % of control
same,T/C,[4],98 % of control
CC(=O)O[C@H]1C(=O)[C@@]2(C)C(C(OC(=O)c3ccccc3)[C@]3(O)CC(OC(=O)[C@H](OC(=O)CCC(=O)O)C(NC(=O)c4ccccc4)c4ccccc4)C(C)=C1C3(C)C)C1(OC(C)=O)COC1C[C@@H]2O (some centres undefined),T/C,[5],111 % of control
same,T/C,"dose: 2.5 mg/kg/injection, vehicle: sodium bicarbonate",119 % of control
same,T/C,[6],159 % of control
same,T/C,"dose: 5.0 mg/kg/injection, vehicle: sodium bicarbonate",154 % of control
same,T/C,[7],166 % of control
same,T/C,"dose: 10.0 mg/kg/injection, vehicle: sodium bicarbonate",159 % of control
same,T/C,"dose: 10.0 mg/kg/injection, vehicle: water",160 % of control and 183 % of control
same,T/C,"dose: 20.0 mg/kg/injection, vehicle: sodium bicarbonate",154 % of control
same,T/C,"dose: 20.0 mg/kg/injection, vehicle: water",160 % of control and 201 % of control
same,T/C,"dose: 40.0 mg/kg/injection, vehicle: sodium bicarbonate",185 % of control
same,T/C,"dose: 40.0 mg/kg/injection, vehicle: water",177 % of control and 218 % of control
Clc1ccc(CN2COc3c(ccc4cccnc34)C2)cc1Cl,T/C,[8],102 % of control
same,T/C,[9],109 % of control
same,T/C,[10],92 % of control
CCN(CC)CCCC(C)Nc1c2ccc(Cl)cc2nc2ccc(OC)cc12 (centres undefined),T/C,"dose: 3.75 mg/kg/injection, vehicle: Klucel (hydroxypropylcellulose) (HPC)",102 % of control
same,T/C,"dose: 7.5 mg/kg/injection, vehicle: Klucel (hydroxypropylcellulose) (HPC)",98 % of control
same,T/C,"dose: 15.0 mg/kg/injection, vehicle: Klucel (hydroxypropylcellulose) (HPC)",109 % of control
same,T/C,"dose: 30.0 mg/kg/injection, vehicle: Klucel (hydroxypropylcellulose) (HPC)",121 % of control
COC12C(COC(N)=O)C3=C(C(=O)C(C)=C(N)C3=O)N1CC1C2N1C (centres undefined),T/C,"dose: 1.0 mg/kg/injection, vehicle: saline",112 % of control and 99 % of control
same,T/C,"dose: 2.0 mg/kg/injection, vehicle: saline",88 % of control
same,T/C,"dose: 8.0 mg/kg/injection, vehicle: saline",111 % of control and 89 % of control
Cc1c2ccncc2c(C)c2c1[nH]c1ccccc12,T/C,"dose: 1.25 mg/kg/injection, vehicle: distilled water + Tween-80",106 % of control
same,T/C,[5],105 % of control
same,T/C,"dose: 2.5 mg/kg/injection, vehicle: distilled water + Tween-80",117 % of control
same,T/C,[6],104 % of control
same,T/C,[7],117 % of control
same,T/C,"dose: 10.0 mg/kg/injection, vehicle: distilled water + Tween-80",151 % of control
same,T/C,"dose: 20.0 mg/kg/injection, vehicle: distilled water + Tween-80",173 % of control
COc1c(O)cc2c(c1OC)-c1ccc(SC)c(=O)cc1C(NC(C)=O)CC2 (centres undefined),T/C,"dose: 1.25 mg/kg/injection, vehicle: Klucel (hydroxypropylcellulose) (HPC)",160 % of control
same,T/C,"dose: 1.8 mg/kg/injection, vehicle: Klucel (hydroxypropylcellulose) (HPC)",180 % of control and 182 % of control and 186 % of control
same,T/C,"dose: 2.5 mg/kg/injection, vehicle: Klucel (hydroxypropylcellulose) (HPC)",156 % of control and 167 % of control
same,T/C,"dose: 3.0 mg/kg/injection, vehicle: Klucel (hydroxypropylcellulose) (HPC)",178 % of control and 184 % of control and 198 % of control
same,T/C,"dose: 10.0 mg/kg/injection, vehicle: Klucel (hydroxypropylcellulose) (HPC)",180 % of control
O=C(O)CNC(=O)C(CSCc1ccccc1)NC(=O)OCc1ccccc1 (centres undefined),T/C,[11],95 % of control
same,T/C,[10],95 % of control
same,T/C,[12],107 % of control
same,T/C,[13],88 % of control
same,T/C,[14],102 % of control
same,T/C,[15],90 % of control
CCOc1ccccc1C(=O)Nc1ccc(Br)cc1,T/C,[11],117 % of control
same,T/C,[14],117 % of control
CCCCC(NC(=O)CNC(=O)OCc1ccccc1)C(=O)O (centres undefined),T/C,[12],92 % of control
same,T/C,[14],96 % of control
same,T/C,"dose: 400.0 mg/kg/injection, vehicle: Klucel (hydroxypropylcellulose) (HPC)",92 % of control
CC(C)(C)OC(=O)NC(CSCc1ccccc1)C(=O)ON1C(=O)CCC1=O (centres undefined),T/C,[12],94 % of control
same,T/C,[14],100 % of control
COc1cccc2c1C(=O)c1c(O)c3c(c(O)c1C2=O)C[C@@](O)(C(=O)CO)C[C@@H]3OC1CC(N)CC(C)O1 (some centres undefined),T/C,"dose: 0.18 mg/kg/injection, vehicle: water",174 % of control
same,T/C,"dose: 0.37 mg/kg/injection, vehicle: water",231 % of control
same,T/C,"dose: 0.38 mg/kg/injection, vehicle: water",175 % of control
same,T/C,"dose: 0.75 mg/kg/injection, vehicle: water",187 % of control and 238 % of control
same,T/C,"dose: 1.5 mg/kg/injection, vehicle: water",181 % of control and 187 % of control
c1ccc2sc(SSN3CC4CCC(CC4)C3)nc2c1,T/C,[8],95 % of control and 108 % of control
same,T/C,[9],93 % of control and 102 % of control
same,T/C,[10],87 % of control and 102 % of control
same,T/C,[13],97 % of control
same,T/C,[15],87 % of control
same,T/C,"dose: 400.0 mg/kg/injection, vehicle: saline with Tween-80",88 % of control
CC1(C)COCN1COC1CCCCC1,T/C,[2],99 % of control
same,T/C,[3],114 % of control
same,T/C,[9],102 % of control
same,T/C,[4],99 % of control
same,T/C,[10],112 % of control
same,T/C,"dose: 50.0 mg/kg/injection, vehicle: saline",114 % of control
same,T/C,[13],115 % of control
same,T/C,"dose: 100.0 mg/kg/injection, vehicle: saline",106 % of control
O=C(C/C(=N\C(=S)Nc1cc(C(F)(F)F)ccc1Cl)NO)N1CCCC1,T/C,[9],123 % of control
same,T/C,[10],116 % of control
same,T/C,[13],94 % of control
